“And” between values parts separate entries of the source, which are not always exact repeats. Equal values may be shown once.

The target of the assay is T1, SETD2 (Homo sapiens, UniProt Q9BYW2).
T1 construct: SETD2 catalytic SET domain (amino acids 1347–1711, UniProt No: Q9BYW2); made in house; host or cells: E. coli
T1 sequence (Q9BYW2 1347-1711): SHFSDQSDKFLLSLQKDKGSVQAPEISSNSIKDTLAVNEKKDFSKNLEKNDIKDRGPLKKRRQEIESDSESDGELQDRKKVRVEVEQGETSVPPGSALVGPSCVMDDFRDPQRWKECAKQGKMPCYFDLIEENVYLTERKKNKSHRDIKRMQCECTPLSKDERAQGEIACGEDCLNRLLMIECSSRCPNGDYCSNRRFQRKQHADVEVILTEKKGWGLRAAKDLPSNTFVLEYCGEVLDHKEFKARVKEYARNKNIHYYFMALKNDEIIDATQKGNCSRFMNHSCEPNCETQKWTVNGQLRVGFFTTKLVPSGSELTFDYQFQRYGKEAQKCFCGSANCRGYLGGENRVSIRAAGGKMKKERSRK
Briefly: Peptide SPOT array target lysine methylation of selected non-histone peptides (Fig. 3b). Particulars: Exp1–Exp3, 3–6 µM SETD2, 0.76 µM AdoMet, 60 min, pH 9. The assay is classed as biochemical. From the text: However, we could identify 166 possible targets, which contain partial matches to the substrate specificity profile. The possible methylation of these 166 putative substrates was investigated at the peptide level. For this, fifteen amino acid long peptides containing the sequence of the non-histone targets surrounding the predicted target lysine were synthesized on a membrane. The H3K36 (29–43) peptide (spots A1, I9), the super-substrate peptide (spots A3, I11) and the corresponding lysine to alanine mutation peptides (spot A2, I10, and A4, I12) were included as positive and negative controls (Fig. 3a, Supplementary Fig. 4 and Supplementary Table 2). The methylation reactions and the detection of the methylation signals were performed in duplicates as described above. We observed that all of the investigated peptides were more weakly methylated than the super-substrate peptide. […] In the next step, 20 of the peptides were selected for further investigation based on the methylation intensity and the known functions of the proteins to confirm the methylation at the predicted target site. The peptides were synthesized on another membrane, now including the target lysine to alanine mutation control peptides in each case. The methylation reactions and the detection of the signal were conducted as described above (Fig. 3b, Supplementary Fig. 5 and Supplementary Table 3).
Fig. 3 Identification of non-histone substrates of SETD2. a Candidate non-histone peptide substrates were identified in the human proteome based on the SETD2 super-substrate specificity profile. The peptides were synthesized on a peptide SPOT array (Supplementary Table 2) and methylated by SETD2. As controls, the H3K36, H3K36A, ssK36 and ssK36A peptides were included on spots A1–A4 and I9–I12. The autoradiography image is an example of the obtained results. […] The quantification of the data of two experiments is shown in Supplementary Fig. 4. b Analysis of target lysine methylation of selected non-histone substrate peptides. Peptide SPOT arrays were synthesized containing the non-histone peptide substrates identified in panel A in addition to the lysine to alanine mutations presented on the array as every second spot (Supplementary Table 3). As controls, the H3K36, H3K36A, ssK36, and ssK36A mutant peptides were included on spot A1–A4 and C5–C8. The autoradiography image is an example of the obtained results. The quantification of the data of three experiments is shown in Supplementary Fig. 5. Peptides selected for furhter analysis are highlighted by blue circles. c Protein methylation of FBN1 and confirmation of the target lysine methylation. Both wild type (WT) and mutant (K666R) FBN1 were purified and equal amounts were methylated by SETD2 (2 µM). […] The size of FBN1 is indicated by an asterisk.
Peptide arrays containing fifteen amino acid long peptides were synthesized using the SPOT synthesis method[48] with an Autospot peptide array synthesizer (Intavis AG, Köln, Germany). After synthesis, the obtained membranes were pre-incubated in methylation buffer (20 mM Tris/HCl pH 9, 0.01% Triton X-100, 10 mM DTT, 1.5 mM MgCl2) for 5 min on a shaker. Thereafter, the membranes were incubated in methylation buffer supplemented with 0.76 µM radioactively labeled AdoMet (PerkinElmer) and 3–6 µM SETD2 enzyme for 60 min on a shaker. After methylation, the membranes were washed 5 times for 5 min in wash buffer (100 mM NH4HCO3, 1% SDS) and incubated in amplify NAMP100V (GE Healthcare) for 5 min. This was followed by the exposure of the membranes to a hyperfilm^TM high performance autoradiography (GE Healthcare) film at −80 °C in the dark. The films were developed with an Optimax Typ TR machine after different exposue times. For quantification the signal intensities were measured with the Phoretix^TM software and analyzed with Microsoft Excel.
On to “AGARGYLATSLCVLG [DYSF K to A, target lysine to alanine control]”, for which the “Relative methylation signal, Average” value is listed as 0.01828.

Take “AGARGYLKTSLCVLG [DYSF, Dysferlin peptide, target lysine 338]”: the “Relative methylation signal, Average” value is reported as 0.2902.

As to “APRFGGVARPNRYRP [DS K to A, super-substrate K36A peptide, negative control]”, the “Relative methylation signal, Average” value is 0.1136 and 0.1005.

As for “ATFLGYFASGLKYKK [GELS K to A, target lysine to alanine control]”, the “Relative methylation signal, Average” value is reported as 0.4943.

Turning to “ATFLGYFKSGLKYKK [GELS, Gelsolin peptide, target lysine 162]”, the “Relative methylation signal, Average” value is 0.5433.

For the sequence “CRKLGGVAKSATFRS [TPD55 K to A, target lysine to alanine control]”, the “Relative methylation signal, Average” value turned out to be 0.6652.

As for “CRKLGGVKKSATFRS [TPD55, Tumor protein D55 peptide, target lysine 112]”, the “Relative methylation signal, Average” value was 0.7056.

In the case of “DDLYGAIAKLCCVQS [PIWL2 K to A, target lysine to alanine control]”, the “Relative methylation signal, Average” value was found to be 0.3265.

Turning to “DDLYGAIKKLCCVQS [PIWL2, Piwi-like protein 2 peptide, target lysine 685]”, the “Relative methylation signal, Average” value came to 0.4271.

For the sequence “EMSIGAIAIALEISL [HMCN1 K to A, target lysine to alanine control]”, the “Relative methylation signal, Average” value was found to be 0.09371.

Regarding “EMSIGAIKIALEISL [HMCN1, Hemicentin-1 peptide, target lysine 127]”, the “Relative methylation signal, Average” value came to 0.3311.

As to “GAIIGFIAVGYKKLF [ATAT K to A, target lysine to alanine control]”, the “Relative methylation signal, Average” value stood at 0.4571.

As for “GAIIGFIKVGYKKLF [ATAT, Alpha-tubulin N-acetyltransferase 1 peptide, target lysine 98]”, the “Relative methylation signal, Average” value was 0.7722.

Regarding “GHPFGYLAASTALNC [INT6 K to A, target lysine to alanine control]”, the “Relative methylation signal, Average” value stood at 0.2106.

Take “GHPFGYLKASTALNC [INT6, Integrator complex subunit 6 peptide, target lysine 369]”: the “Relative methylation signal, Average” value came out at 0.398.

Regarding “KAPRGFLARVFKRKK [CENPW K to A, target lysine to alanine control]”, the “Relative methylation signal, Average” value turned out to be 0.3763.

With “KAPRGFLKRVFKRKK [CENPW, Centromere protein W peptide, target lysine 23]”, the “Relative methylation signal, Average” value is listed as 0.677.

For “KDVIGAFAKVFACCS [O2T11 K to A, target lysine to alanine control]”, the “Relative methylation signal, Average” value is given as 0.2642.

Turning to “KDVIGAFKKVFACCS [O2T11, Olfactory receptor 2T11 peptide, target lysine 299]”, the “Relative methylation signal, Average” value was 0.408.

For the sequence “KRIYGGFASTAGKHP [HABP2 K to A, target lysine to alanine control]”, the “Relative methylation signal, Average” value is 0.2122.

Regarding KRIYGGFKSTAGKHP [HABP2], the “Relative methylation signal, Average” value is 0.2413.

For “LHNRGALALTTGKCV [SIA8D K to A, target lysine to alanine control]”, the “Relative methylation signal, Average” value turned out to be 0.2965.

As to “LHNRGALKLTTGKCV [SIA8D, CMP-N-acetylneuraminate-poly-alpha-2,8-sialyltransferase peptide, target lysine 350]”, the “Relative methylation signal, Average” value amounted to 0.4366.

For “LICIGALAKLCNHPC [RA54B K to A, target lysine to alanine control]”, the “Relative methylation signal, Average” value came out at 0.4423.

In the case of “LICIGALKKLCNHPC [RA54B, DNA repair and recombination protein RAD54B peptide, target lysine 589]”, the “Relative methylation signal, Average” value was 0.598.

As for “LWKIGFFARPLKKKM [ITA1 K to A, target lysine to alanine control]”, the “Relative methylation signal, Average” value is 0.403.

As for “LWKIGFFKRPLKKKM [ITA1, Integrin alpha-1 peptide, target lysine 1170]”, the “Relative methylation signal, Average” value was found to be 0.4107.

For “RRGIGYLALICFLIP [ANKAR K to A, target lysine to alanine control]”, the “Relative methylation signal, Average” value stood at 0.01267.

Take “RRGIGYLKLICFLIP [ANKAR, Ankyrin and armadillo repeat-containing protein peptide, target lysine 317]”: the “Relative methylation signal, Average” value was found to be 0.4211.

Consider “STCYGGIAKGVCVRP [FBN2 K to A, target lysine to alanine control]”, for which the “Relative methylation signal, Average” value stood at 0.3693.

On to “STCYGGIKKGVCVRP [FBN2, Fibrillin-2 peptide, target lysine 711]”, for which the “Relative methylation signal, Average” value amounted to 0.6873.

As for “STCYGGYARGQCIKP [FBN1 K to A, target lysine to alanine control]”, the “Relative methylation signal, Average” value stood at 0.2279.

With “TPPLGGYAVTAKCFG [HDAC9 K to A, target lysine to alanine control]”, the “Relative methylation signal, Average” value stood at 0.4627.

“TPPLGGYKVTAKCFG [HDAC9, Histone deacetylase 9 peptide, target lysine 927]”: the “Relative methylation signal, Average” value stood at 0.7696.

Turning to “YCLIGGVAMTRFICK [DLEC1 K to A, target lysine to alanine control]”, the “Relative methylation signal, Average” value is 0.4812.

On to “YCLIGGVKMTRFICK [DLEC1, Deleted in lung and esophageal cancer protein 1 peptide, target lysine 494]”, for which the “Relative methylation signal, Average” value is 0.8047.

In the case of “YGPFGYIANPYNIFD [CAC1G K to A, target lysine to alanine control]”, the “Relative methylation signal, Average” value was found to be 0.03839.

With “YGPFGYIKNPYNIFD [CAC1G, Voltage-dependent T-type calcium channel subunit alpha-1G peptide, target lysine 804]”, the “Relative methylation signal, Average” value came to 0.9453.

These data come from publication PMC7495481, “Sequence specificity analysis of the SETD2 protein lysine methyltransferase and discovery of a SETD2 super-substrate” (Communications Biology, 2020).
